The results in this text go back to US7863449B2, “Modulators of muscarinic receptors” (Vertex Pharmaceuticals Incorporated, priority 2004, dated 2011).

The structures appear in SMILES notation.

Experiment [1] concerns the target T1, M4 muscarinic receptor (Homo sapiens, UniProt P08173).
T1 construct: expressed in transfected cells; host or cells: CHO (M4-CHO)
T1 sequence (P08173 1-479): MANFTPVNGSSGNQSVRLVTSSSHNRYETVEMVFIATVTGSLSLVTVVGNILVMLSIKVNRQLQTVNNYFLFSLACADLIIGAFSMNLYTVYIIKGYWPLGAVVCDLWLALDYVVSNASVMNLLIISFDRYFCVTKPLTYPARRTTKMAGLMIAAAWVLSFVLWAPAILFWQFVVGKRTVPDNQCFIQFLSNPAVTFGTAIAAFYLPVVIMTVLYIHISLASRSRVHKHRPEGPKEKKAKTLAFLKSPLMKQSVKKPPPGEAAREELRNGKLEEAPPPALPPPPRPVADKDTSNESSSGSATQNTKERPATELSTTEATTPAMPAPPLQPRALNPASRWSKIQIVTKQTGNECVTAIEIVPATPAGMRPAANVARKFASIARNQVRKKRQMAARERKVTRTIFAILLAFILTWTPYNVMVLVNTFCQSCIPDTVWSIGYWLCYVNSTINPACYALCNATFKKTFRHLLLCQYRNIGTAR
Description: Functional mobilization of intracellular calcium (FLIPR), M4-CHO cells. As to conditions: for Emax: 100% efficacy is the maximum response obtained using Carbachol as a control; for M4 Activity: M4-CHO cells, FLIPR calcium mobilization. In kind it is cell-based. The procedure: (§1) Functional Mobilization of Intracellular Calcium to Determine Muscarinic Receptor Activity:
(§2) CHO cells expressing muscarinic receptors (M1 to M5) are grown as monolayers in tissue culture flasks at 37° C. in a humidified atmosphere containing 5% CO2 and passaged every 3-5 days. The growth media is Dulbecco's modified eagles medium (DMEM, Gibco Cat# 12430-054), containing 25 mM Hepes and supplemented with Fetal Bovine Serum (Hyclone, cat# SH30071.03), 0.1 mM of MEM non-essential amino acids (GIBCO, Cat# 11140-050), 1 mM MEM Sodium Pyruvate (GIBCO Cat# 11360-070) and 100 units/ml of Penicillin G and 100 μg/ml of Streptomycin (GIBCO Cat# 15140-122). The recombinant muscarinic receptor cell lines are grown under antibiotic pressure with media containing 25 μg/ml zeocin and 500 μg/ml G418 (M1-CHO), 4 μg/ml puromycin, 50 μg/ml zeocin and 2.5 μg/ml blasticidin (M2 and M4-CHO) or 50 μg/ml zeocin and 4 μg/ml puromycin (M3 and M5-CHO).
(§3) Cells are harvested at 80-90% confluence using Versene (GIBCO Cat# 15040-066), collected by centrifugation and seeded 18-24 hrs prior to running the calcium assay at a density of 5,000-10,000 cells/well in […], clear-bottomed 384-well plates (BD Biocoat, poly-D-lysine, Cat#356663). The day of the experiment, the cells are washed with a plate washer (Bioteck Instruments, ELX 405) using bath1 buffer (140-mM NaCl, 4.5-mM KCl, 2-mM CaCl2, 1-mM MgCl2, 10-mM Hepes-Na, 10-mM Glucose, pH 7.4, with NaOH) containing 1 mM Probenecid. Next, the calcium dye Fluo-3 (25 μl/well of Fluo-3 AM at 4 μM, Molecular Probes F-1241, in Bath 1 buffer containing 1 mM Probenecid) is added to the 25 μl of Bath 1 remaining in each well after the plate wash and the dye is loaded at 37° C. in the tissue culture incubator for 60-90 min. The fluorescent dye is removed using the plate washer with Bath 1 containing 1 mM Probenecid, leaving 25 μl/well of this solution after the wash. Alternatively, cells can be loaded with the calcium indicator from Molecular Devices (Calcium 3 Assay Reagents, Cat # R7181) adding 5 μl of a 5× solution dye in Bath 1 containing 1 mM Probenecid (10 ml per dye flask cat# R7182 to generate a solution 20×) to 20 μl of the same buffer. After loading for 60 min, the experiment can be run without having to remove the dye.
(§4) Compounds are prepared at a 2× fold concentration in a 96-well plate (round bottom, Costar Corning cat# 3656), by reconstituting the pre-spotted compounds in bath 1 containing 1 mM probenecid. The final concentration DMSO is 0.5%, and the amount of DMSO is normalized across the assay plate. To determine an agonist action of the compounds on muscarinic receptors, the reconstituted compounds are added (25 μl compound/well) to the cell assay plate (containing 25 μl/well) using the multi-channel robotic system of the FLIPR 3 Instrument (Molecular Devices, Sunnyvale, Calif.). To determine a functional inhibitory action of the compounds on muscarinic receptors, the reconstituted compounds are added (25 μl compound/well) to the assay plate and pre-incubated for 15 min prior to adding 25 μl of Carbachol at 3× the EC80 for each muscarinic subtype. Alternatively, the compounds can be co-applied simultaneously with the agonist. In both assay modes, the fluorescence is recorded for 60 sec (excitation wavelength is […] and emission wavelength 540 nm) using the FLIPR 3 instrument.
(§5) The potency, efficacy and selectivity of the muscarinic compounds were evaluated by screening the compound activity across the whole family (M1 to M5 cells). Compounds were also screened for activity on other proteins such as other GPCRs and ion channels to determine selectivity on M4 receptors.
(Calcium flux is commonly read through the fluorescence of an indicator in the cells.)

Experiment [2] addresses T2, M1 muscarinic receptor (Homo sapiens, UniProt P11229).
T2 construct: expressed in transfected cells; host or cells: CHO (M1-CHO)
T2 sequence (P11229 1-460): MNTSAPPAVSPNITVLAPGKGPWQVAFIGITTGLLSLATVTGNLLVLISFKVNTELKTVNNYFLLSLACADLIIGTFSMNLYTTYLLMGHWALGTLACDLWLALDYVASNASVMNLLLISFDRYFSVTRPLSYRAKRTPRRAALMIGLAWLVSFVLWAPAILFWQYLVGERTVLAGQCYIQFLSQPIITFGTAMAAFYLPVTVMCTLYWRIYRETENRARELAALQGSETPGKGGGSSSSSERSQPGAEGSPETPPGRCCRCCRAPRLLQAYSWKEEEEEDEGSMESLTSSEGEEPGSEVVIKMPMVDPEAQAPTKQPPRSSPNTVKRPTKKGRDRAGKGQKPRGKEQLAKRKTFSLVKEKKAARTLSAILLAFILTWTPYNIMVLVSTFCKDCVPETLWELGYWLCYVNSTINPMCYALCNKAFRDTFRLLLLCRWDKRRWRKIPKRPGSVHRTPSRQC
The experiment can be described thus: Functional mobilization of intracellular calcium (FLIPR), M1-CHO cells. In kind it is cell-based. As to conditions: for Emax: 100% efficacy is the maximum response obtained using Carbachol as a control; for M1 Activity: M1-CHO cells, FLIPR calcium mobilization. Here is the method: as §1, §2, §3, §4, §5

Consider `CCOC(=O)N1CC(CN2CCC3(CC2)CN(C(C)=O)Cc2ccccc23)C1` [compound 1], for which, in experiment [1], the Emax (as a rule, the size of the effect at its maximum, as opposed to the concentration needed) is < 25% and the “M4 Activity” value was “++ (activity was measured to be from 1.0 μM to 5.0 μM)”. In experiment [2], the Emax lay in the range of 25 to 100% and the “M1 Activity” value was “++ (activity was measured to be from 1.0 μM to 5.0 μM)”.
For `CC(=O)N1Cc2ccccc2C2(CCN(CC3CCC(C)=CC3C)CC2)C1` (stereo not drawn) [compound 2], the Emax in experiment [1] and in experiment [2] was < 25% throughout.
With `CN(C)S(=O)(=O)N1Cc2ccccc2C2(CCN(C3CC4CCC(C3)N4C(=O)O[C@@H]3CCOC3)CC2)C1` (stereo partly drawn) [compound 3], in experiment [1], the Emax was in the range of 25 to 100% and the “M4 Activity” value is on record as “+++ (activity was measured to be less than 1.0 μM)”. In experiment [2], the Emax is 25 to 100% and the “M1 Activity” value is reported as “+++ (activity was measured to be less than 1.0 μM)”.
In the case of `CC(=O)N1Cc2ccccc2C2(CCN(C3(C)CCCCC3)CC2)C1` [compound 4, 1-(1′-(1-methylcyclohexyl)-1H-spiro[isoquinoline-4,4′-piperidine]-2(3H)-yl)ethanone], in experiment [1], the Emax was in the range of 25 to 100% and the “M4 Activity” value is recorded as “+++ (activity was measured to be less than 1.0 μM)”. Moreover, in experiment [2], the Emax was 25 to 100% and the “M1 Activity” value is “++ (activity was measured to be from 1.0 μM to 5.0 μM)”.
`CC(=O)N1Cc2ccccc2C2(CCN(Cc3ccncc3)CC2)C1` [compound 5]: in experiment [1], the Emax was < 25% and the “M4 Activity” value is “+ (activity was measured to be greater than 5.0 μM)”. For the same molecule, in experiment [2], the Emax is < 25% and the “M1 Activity” value is recorded as “+ (activity was measured to be greater than 5.0 μM)”.
With `CCOC(=O)N1CCC(N2CCC3(CC2)CN(C(=O)CC)Cc2ccccc23)CC1` [compound 6], in experiment [1], the Emax was 25 to 100% and the “M4 Activity” value is given as “+++ (activity was measured to be less than 1.0 μM)”. Besides, in experiment [2], the Emax is 25 to 100% and the “M1 Activity” value is “+++ (activity was measured to be less than 1.0 μM)”.
Regarding `CCCOC(=O)N1C2CCC1CC(N1CCC3(CC1)CN(C(=O)N(C)C)Cc1ccccc13)C2` (stereo not drawn) [compound 7], in experiment [1], the Emax was 25 to 100% and the “M4 Activity” value is on record as “+++ (activity was measured to be less than 1.0 μM)”. Further, in experiment [2], the Emax was in the range of 25 to 100% and the “M1 Activity” value was “+++ (activity was measured to be less than 1.0 μM)”.
Take `CCOC(=O)N1C2CCC1CC(N1CCC3(CC1)CN(C(=O)OC(C)C)Cc1ccccc13)C2` (stereo not drawn) [compound 8]: in experiment [1], the maximal effect (Emax) is 25 to 100% and the “M4 Activity” value is listed as “+++ (activity was measured to be less than 1.0 μM)”. In experiment [2], the Emax lay in the range of 25 to 100% and the “M1 Activity” value is “+++ (activity was measured to be less than 1.0 μM)”.
As to `CCOC(=O)N1CCC(N2CCC3(CC2)CN(CC#Cc2ccccc2)Cc2ccccc23)CC1` [compound 9], in experiment [1], the Emax lay in the range of 25 to 100% and the “M4 Activity” value is “+++ (activity was measured to be less than 1.0 μM)”. Further, in experiment [2], the Emax fell in the range of 25 to 100% and the “M1 Activity” value was “+++ (activity was measured to be less than 1.0 μM)”.
Consider `CCOC(=O)N1CCC(N2CCC3(CC2)CN(C(=O)C2CCCC2)Cc2ccccc23)CC1` [compound 10], for which, in experiment [1], the Emax is < 25% and the “M4 Activity” value is reported as “++ (activity was measured to be from 1.0 μM to 5.0 μM)”. In addition, in experiment [2], the Emax lay in the range of 25 to 100% and the “M1 Activity” value was “+++ (activity was measured to be less than 1.0 μM)”.
The like results for `CCOC(=O)N1CCC(CN2CCC3(CC2)CN(C(=O)OCC)Cc2ccccc23)CC1` [compound 11] were, in that order, 25 to 100%, “+++ (activity was measured to be less than 1.0 μM)”, 25 to 100% and “+++ (activity was measured to be less than 1.0 μM)”.
For `CCOC(=O)N1C2CCC1CC(N1CCC3(CC1)CN(c1ccc(C)c(C)c1)Cc1ccccc13)C2` (stereo not drawn) [compound 12], in that order: 25 to 100%, “+++ (activity was measured to be less than 1.0 μM)”, 25 to 100% and “+++ (activity was measured to be less than 1.0 μM)”.
For `CC(=O)N1Cc2ccccc2C2(CCN(C3CC4CCC(C3)N4C(=O)O[C@@H]3CCOC3)CC2)C1` (stereo partly drawn) [compound 13], in that order: 25 to 100%, “+++ (activity was measured to be less than 1.0 μM)”, 25 to 100% and “+++ (activity was measured to be less than 1.0 μM)”.
In the case of `CCOC(=O)N1C2CCC1CC(N1CCC3(CC1)CN(C(=O)OC1CCCC1)Cc1ccccc13)C2` (stereo not drawn) [compound 14], in experiment [1], the Emax lay in the range of 25 to 100% and the “M4 Activity” value was “+++ (activity was measured to be less than 1.0 μM)”. In experiment [2], the Emax fell in the range of 25 to 100% and the “M1 Activity” value is given as “+++ (activity was measured to be less than 1.0 μM)”.
For `CCOC(=O)N1C2CCC1CC(N1CCC3(CC1)CN(C(=O)c1cc(C)nn1C(C)(C)C)Cc1ccccc13)C2` (stereo not drawn) [compound 15], in experiment [1], the Emax lay in the range of 25 to 100% and the “M4 Activity” value was “+++ (activity was measured to be less than 1.0 μM)”. In experiment [2], the Emax was 25 to 100% and the “M1 Activity” value is “+++ (activity was measured to be less than 1.0 μM)”.
Regarding `CCOC(=O)N1CCC(N2CCC3(CC2)CN(C(=O)Nc2ccccc2)Cc2ccccc23)CC1` [compound 16], in experiment [1], the Emax lay in the range of 25 to 100% and the “M4 Activity” value was “+++ (activity was measured to be less than 1.0 μM)”. Also, in experiment [2], the Emax was in the range of 25 to 100% and the “M1 Activity” value is recorded as “+++ (activity was measured to be less than 1.0 μM)”.
Consider `CCOC(=O)N1C2CCC1CC(N1CCC3(CC1)CN(C(=O)c1cccnc1)Cc1ccccc13)C2` (stereo not drawn) [compound 17], for which, in experiment [1], the Emax was in the range of 25 to 100% and the “M4 Activity” value was “+++ (activity was measured to be less than 1.0 μM)”. In experiment [2], the Emax was in the range of 25 to 100% and the “M1 Activity” value is “+++ (activity was measured to be less than 1.0 μM)”.
